What was measured:
[1] = Shell wheel test (corrosion inhibition); conditions: 50 ppm of a 40% inhibitor solution; salt water/petroleum, pH 3.5, 40 rpm, 70° C., 24 hours; from mass reduction vs blank
Experimental: The compounds according to the invention were tested as corrosion inhibitors in the Shell wheel test. Coupons of carbon steel (DIN 1.1203 having 15 cm^2 surface area) were immersed in a salt water/petroleum mixture (9:1.5% NaCl solution, adjusted to pH 3.5 using acetic acid) and subjected to this medium at a rotation rate of 40 rpm at 70° C. for 24 hours. The dosage of the inhibitor was 50 ppm of a 40% solution of the inhibitor. The protection values were calculated from the mass reduction of the coupons, based on a blank value.
In the table which follows, “comparison 1” refers to a commercial residue amine, quat based on dicocoalkyldimethylammonium chloride and “comparison 2” to a commercial soya fatty acid amidopropyl-N,N-dimethylammonium carboxymethyl betaine described by EP-B-0 446 616 (prior art corrosion inhibitors).

[2] = LPR test (corrosion inhibition, conditions similar to ASTM D 2776); parameters: concentration or dose not given beside the values
Experimental: The products were also tested in the LPR test (test conditions similar to ASTM D 2776).

Row | Substance | ø Protection % [1] [%] | Protection after 10 min [2] [%] | Protection after 30 min [2] [%] | Protection after 60 min [2] [%]
1 | C14/15-oxo alcohol+7 EO-ether carboxamido-N,N-dimethylamino-N-propylammonium N-methylcarboxyl betaine [Example 34] | 71.9 |  |  | 
2 | lauryl+3 EO-ether carboxamido-N,N-dimethylamino-N-propylammonium N-methylcarboxyl betaine [Example 35] | 75.9 | 74.4 | 80.2 | 84.3
3 | oleyl+5 EO-ether carboxamido-N,N-dimethylamino-N-propylammonium N-methylcarboxyl betaine [Example 33] | 70.7 | 75.6 | 80.3 | 82.8

— US7323609B2, “Corrosion and gas hydrate inhibitors having improved water solubility and increased biodegradability” (Clariant Produkte (Deutschland) GmbH, priority 2003, dated 2008)
